Measured values reported in US6194395A, “Cyclodextrin cladribine formulations” (Orthro-McNeil Pharmaceutical, Inc., priority 1999, dated 2001).
In brackets after ≈: the same amount, converted by molar mass. Entries after “also recorded” stand apart in the source; their conditions may differ. Where two headings read alike, the source gives them in different places.

Key:
[1] = Solubility of cladribine in water at various HPCD concentrations (HPLC); assay type: physicochemical; conditions: no HPCD, temperature not stated, read-out: normal solubility of cladribine in water
[2] = in words, cited from earlier work
[3] = Stability of cladribine with/without HPCD at pH 1.4 and 8.2 at room temperature; assay type: physicochemical
Experimental: The effect of the HPCD on the stability of cladribine at pH 1.4 and 8.2 at room temperature was measured.

[4] = Solubility of cladribine in water at various HPCD concentrations (HPLC); assay type: physicochemical; conditions: for solubility at 120 h: pH 7.3
Experimental: The cylodextrin and the buffer salts were solved in Water for Injection and an excess of Cladribine was added. The solution was shaken during 5 days at room temperature and 4° C. The solution was filtered through a 0.2 μm filter.
The solubility of cladribine in water at various concentrations of 2-Hydroxypropyl-β-Cyclodextrin (HPCD) was measured by high performance liquid chromatography. […] Table 2 sets forth the results of the solubility measurements for the HPCD/cladribine formulation of Example 1.

SMILES: Nc1nc(Cl)nc2c1ncn2[C@H]1C[C@H](O)[C@@H](CO)O1 [Cladribine, 2-chloro-2'-deoxyadenosine]
- solubility [1]: ~4.52 mg/mL (≈ 15.8 mM)
- stability in acid ([2]; acidic environment of the gastro-intestinal system): acid labile
- stability in simple saline solutions ([2]; simple saline): limited stability
- solubility in water ([2]; water): slightly soluble
- stability against hydrolysis when combined with cyclodextrins ([3]; combined with cyclodextrins, in words): significantly more stable
- stability at lower pH when combined with cyclodextrins like HPCD ([3]; lower pH, with cyclodextrins like HPCD): significantly more stable
- stability at pH 1.4 ([3]; pH 1.4, room temperature, with HPCD versus cladribine solution without HPCD (FIG. 1)): significantly enhanced
- solubility at 120 h ([4]; 10% hp-β-cd in buffered water, pH 7.3, 4° C., 10% HP-β-CD (W/W), read-out: Solubility of Cladribine at 4° C.): 4.93 mg/mL (≈ 17.3 mM)
- solubility at 120 h ([4]; 10% hp-β-cd in buffered water, pH 7.3, RT, 10% HP-β-CD (W/W), read-out: Solubility of Cladribine (mg/ml) at RT): 6.4 mg/mL (≈ 22.4 mM)
- solubility at 120 h ([4]; 15% hp-β-cd in buffered water, pH 7.3, 4° C., 15% HP-β-CD (W/W), read-out: Solubility of Cladribine at 4° C.): 6.51 mg/mL (≈ 22.8 mM)
- solubility at 120 h ([4]; 15% hp-β-cd in buffered water, pH 7.3, RT, 15% HP-β-CD (W/W), read-out: Solubility of Cladribine (mg/ml) at RT): 8.47 mg/mL (≈ 29.6 mM)
- solubility at 120 h ([4]; 20% hp-β-cd in buffered water, pH 7.3, 4° C., 20% HP-β-CD (W/W), read-out: Solubility of Cladribine at 4° C.): 8.27 mg/mL (≈ 28.9 mM)
- solubility at 120 h ([4]; 20% hp-β-cd in buffered water, pH 7.3, RT, 20% HP-β-CD (W/W), read-out: Solubility of Cladribine (mg/ml) at RT): 10.5 mg/mL (≈ 36.7 mM)
- solubility at 120 h ([4]; 25% hp-β-cd in buffered water, pH 7.3, 4° C., 25% HP-β-CD (W/W), read-out: Solubility of Cladribine at 4° C.): 9.91 mg/mL (≈ 34.7 mM)
- solubility at 120 h ([4]; 25% hp-β-cd in buffered water, pH 7.3, RT, 25% HP-β-CD (W/W), read-out: Solubility of Cladribine (mg/ml) at RT): 12.4 mg/mL (≈ 43.3 mM)
- solubility of cladribine in water through use of the cyclodextrin formulation ([4]; with cyclodextrin, in words): significantly enhanced; also recorded: greatly increased
